Reference: ChEMBL document CHEMBL2417445, “Access to 7β-analogs of codeine with mixed μ/δ agonist activity via 6,7-α-epoxide opening” (Bioorg Med Chem Lett, 2013)

Assays:
[1] = target: T1, Delta-type opioid receptor (Homo sapiens, UniProt P41143); experiment: Activation of human DOR assessed as inhibition of forskolin-stimulated cAMP accumulation after 30 mins by cell based TR-FRET assay relative to DPDPE; type: functional
[2] = target: T1, Delta-type opioid receptor; experiment: Agonist activity at human DOR assessed as inhibition of forskolin-stimulated cAMP accumulation after 30 mins by cell based TR-FRET assay; type: functional
[3] = target: Kappa-type opioid receptor (Mus musculus, UniProt P33534); experiment: Agonist activity at mouse KOR assessed as inhibition of forskolin-stimulated cAMP accumulation after 30 mins by cell based TR-FRET assay; type: functional
[4] = target: Mu-type opioid receptor (Mus musculus) (UniProt P42866); experiment: Activation of mouse MOR assessed as inhibition of forskolin-stimulated cAMP accumulation after 30 mins by cell based TR-FRET assay relative to DAMGO; type: functional
[5] = species: Homo sapiens; experiment: Selectivity ratio of EC50 for human KOR to EC50 for human MOR
[6] = target: Mu-type opioid receptor (Mus musculus, UniProt P42866); experiment: Agonist activity at mouse MOR assessed as inhibition of forskolin-stimulated cAMP accumulation after 30 mins by cell based TR-FRET assay; type: functional
[7] = target: Kappa-type opioid receptor (Homo sapiens, UniProt P41145); type: functional, cell-based
Description: Agonist activity at human KOR assessed as inhibition of forskolin-stimulated cAMP accumulation after 30 mins by cell based TR-FRET assay

[8] = species: Homo sapiens; experiment: Selectivity ratio of EC50 for human KOR to EC50 for human DOR
[9] = target: T2, Mu-type opioid receptor (Homo sapiens, UniProt P35372); experiment: Agonist activity at human MOR assessed as inhibition of forskolin-stimulated cAMP accumulation after 30 mins by cell based TR-FRET assay; type: functional
[10] = target: T2, Mu-type opioid receptor; experiment: Ratio of morphine EC50 to compound EC50 for human MOR

Sequence of Kappa-type opioid receptor (Homo sapiens, UniProt P41145) (P41145 whole entry): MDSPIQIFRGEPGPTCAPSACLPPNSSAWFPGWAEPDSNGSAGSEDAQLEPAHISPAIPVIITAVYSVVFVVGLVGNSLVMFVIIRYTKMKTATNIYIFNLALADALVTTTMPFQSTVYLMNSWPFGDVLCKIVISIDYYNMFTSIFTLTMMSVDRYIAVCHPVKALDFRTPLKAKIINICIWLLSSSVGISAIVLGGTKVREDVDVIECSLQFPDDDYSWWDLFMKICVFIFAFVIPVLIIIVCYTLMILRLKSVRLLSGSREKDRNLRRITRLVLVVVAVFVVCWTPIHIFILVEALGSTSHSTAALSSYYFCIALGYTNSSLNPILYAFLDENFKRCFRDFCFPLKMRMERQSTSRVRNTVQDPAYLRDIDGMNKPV
Sequence of Kappa-type opioid receptor (Mus musculus, UniProt P33534) (P33534 whole entry): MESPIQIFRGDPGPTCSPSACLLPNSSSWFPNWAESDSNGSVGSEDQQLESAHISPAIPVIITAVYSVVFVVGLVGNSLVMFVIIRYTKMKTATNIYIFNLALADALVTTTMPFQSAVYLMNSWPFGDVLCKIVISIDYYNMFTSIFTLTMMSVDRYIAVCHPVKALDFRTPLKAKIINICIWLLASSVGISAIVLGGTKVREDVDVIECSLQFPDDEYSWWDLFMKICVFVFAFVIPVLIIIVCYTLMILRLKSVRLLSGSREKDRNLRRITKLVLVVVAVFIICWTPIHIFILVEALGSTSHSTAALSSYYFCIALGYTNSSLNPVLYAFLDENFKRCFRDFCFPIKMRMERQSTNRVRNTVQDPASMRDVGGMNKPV
Sequence of Mu-type opioid receptor (Mus musculus, UniProt P42866) (P42866 whole entry): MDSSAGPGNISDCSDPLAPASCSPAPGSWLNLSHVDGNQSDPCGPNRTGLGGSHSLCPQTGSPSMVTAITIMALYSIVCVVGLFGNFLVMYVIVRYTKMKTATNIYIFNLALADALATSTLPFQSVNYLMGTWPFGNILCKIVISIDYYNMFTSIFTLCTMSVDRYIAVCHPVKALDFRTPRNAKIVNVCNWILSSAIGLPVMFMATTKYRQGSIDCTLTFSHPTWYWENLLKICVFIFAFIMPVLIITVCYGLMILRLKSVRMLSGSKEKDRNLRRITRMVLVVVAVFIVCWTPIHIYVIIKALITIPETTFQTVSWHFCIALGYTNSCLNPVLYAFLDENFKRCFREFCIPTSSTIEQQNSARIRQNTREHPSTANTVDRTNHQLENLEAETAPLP
Sequence of Mu-type opioid receptor (Mus musculus) (P42866 whole entry): as above
T1 sequence (P41143 whole entry): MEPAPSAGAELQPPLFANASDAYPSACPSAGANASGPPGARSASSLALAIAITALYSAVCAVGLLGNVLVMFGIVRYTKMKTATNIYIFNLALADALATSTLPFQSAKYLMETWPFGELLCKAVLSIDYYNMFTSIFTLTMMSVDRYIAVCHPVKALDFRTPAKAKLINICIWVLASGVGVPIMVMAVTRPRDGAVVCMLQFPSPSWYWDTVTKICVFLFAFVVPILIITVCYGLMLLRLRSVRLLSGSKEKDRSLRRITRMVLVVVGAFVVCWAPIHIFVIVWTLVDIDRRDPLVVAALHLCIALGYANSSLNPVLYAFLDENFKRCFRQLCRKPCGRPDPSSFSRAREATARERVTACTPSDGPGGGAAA
T2 sequence (P35372 whole entry): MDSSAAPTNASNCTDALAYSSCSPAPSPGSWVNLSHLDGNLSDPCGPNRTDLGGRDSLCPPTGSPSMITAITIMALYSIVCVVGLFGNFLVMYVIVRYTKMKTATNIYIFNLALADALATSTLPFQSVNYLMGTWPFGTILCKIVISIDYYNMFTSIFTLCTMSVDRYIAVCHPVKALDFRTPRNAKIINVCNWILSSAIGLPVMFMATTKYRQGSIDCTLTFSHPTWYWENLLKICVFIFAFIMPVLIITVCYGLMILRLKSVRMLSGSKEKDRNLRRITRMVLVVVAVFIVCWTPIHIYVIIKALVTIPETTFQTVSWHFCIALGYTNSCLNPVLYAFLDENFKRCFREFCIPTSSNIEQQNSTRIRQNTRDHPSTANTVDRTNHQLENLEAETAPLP

## COc1ccc2c3c1O[C@H]1[C@@H](O)[C@H](C)C[C@H]4[C@@H](C2)N(C)CC[C@@]341
[1]
  inhibition: 97%
[2]
  EC50: 3.2 µM
[3]
  EC50: 32 µM
[4]
  inhibition: 97%
[5]
  Ratio EC50: 13
[6]
  EC50: 600 nM
[7]
  EC50: 25 µM
[8]
  Ratio EC50: 8
[9]
  EC50: 2 µM

## CN1CC[C@]23c4c5ccc(O)c4O[C@H]2[C@@H](O)C=C[C@H]3[C@H]1C5
[1]
  inhibition: 69%
[4]
  inhibition: 97%

## COc1cc(C)c2c3c1O[C@H]1[C@@H](O)[C@H](C)C[C@H]4[C@@H](C2)N(C)CC[C@@]341
[1]
  inhibition: 73%
[2]
  EC50: 16 µM
[3]
  EC50: 50 µM
[4]
  inhibition: 77%
[5]
  Ratio EC50: 3
[6]
  EC50: 2000 nM
[8]
  Ratio EC50: 1
[9]
  EC50: 5 µM

## COc1cc(C)c2c3c1O[C@H]1[C@H](F)[C@H](C)C[C@H]4[C@@H](C2)N(C)CC[C@@]341
[1]
  inhibition: 86%
[2]
  EC50: 3.2 µM
[3]
  EC50: 10 µM
[4]
  inhibition: 78%
[5]
  Ratio EC50: 1
[6]
  EC50: 800 nM
[7]
  EC50: 5 µM
[8]
  Ratio EC50: 1
[9]
  EC50: 3.2 µM

## COc1ccc2c3c1O[C@H]1[C@@H](O)[C@H](F)C[C@H]4[C@@H](C2)N(C)CC[C@@]341
[1]
  inhibition: 90%
[2]
  EC50: 79 µM
[4]
  inhibition: 79%
[5]
  Ratio EC50: 2
[6]
  EC50: 8000 nM
[8]
  Ratio EC50: 1
[9]
  EC50: 40 µM

## COc1ccc2c3c1O[C@H]1[C@@H](O)[C@H](O)C[C@H]4[C@@H](C2)N(C)CC[C@@]341
[1]
  inhibition: 117%
[2]
  EC50: 100 µM
[3]
  EC50: 159 µM
[4]
  inhibition: 96%
[5]
  Ratio EC50: 8
[6]
  EC50: 6300 nM
[7]
  EC50: 126 µM
[8]
  Ratio EC50: 1
[9]
  EC50: 16 µM

## COc1ccc2c3c1O[C@H]1[C@@H](OC)[C@H](C)C[C@H]4[C@@H](C2)N(C)CC[C@@]341
[1]
  inhibition: 94%
[2]
  EC50: 2.5 µM
[3]
  EC50: 50 µM
[4]
  inhibition: 92%
[5]
  Ratio EC50: 10
[6]
  EC50: 800 nM
[7]
  EC50: 32 µM
[8]
  Ratio EC50: 13
[9]
  EC50: 3.2 µM

## C[C@@H](NC(=O)[C@@H](N)Cc1ccc(O)cc1)C(=O)NCC(=O)N(C)[C@@H](Cc1ccccc1)C(=O)NCCO [DAMGO]
[1]
  inhibition: 99%

## COc1ccc2c3c1O[C@H]1C(=O)CC[C@@]4(O)[C@@H](C2)N(C)CC[C@]314 [OXYCODONE]
[1]
  inhibition: 93%
[3]
  EC50: 16 µM
[4]
  inhibition: 97%
[6]
  EC50: 160 nM

## COc1ccc2c3c1O[C@H]1[C@@H](O)[C@H](OC)C[C@H]4[C@@H](C2)N(C)CC[C@@]341
[1]
  inhibition: 84%
[2]
  EC50: 13 µM
[4]
  inhibition: 86%
[5]
  Ratio EC50: 3
[6]
  EC50: 4000 nM
[7]
  EC50: 50 µM
[8]
  Ratio EC50: 4
[9]
  EC50: 16 µM

## C[C@@H]1C[C@H]2[C@H]3Cc4ccc(O)c5c4[C@@]2(CCN3C)[C@@H](O5)[C@H]1O
[1]
  inhibition: 107%
[2]
  EC50: 0.08 µM
[3]
  EC50: 1.6 µM
[10]
  Ratio EC50: 2
[4]
  inhibition: 99%
[5]
  Ratio EC50: 80
[6]
  EC50: 10 nM
[7]
  EC50: 1.6 µM
[8]
  Ratio EC50: 20
[9]
  EC50: 0.02 µM
